The conditions of series [1]: for viscosity: 101.33 kPa, Liquid; for Triple point temperature: Crystal.
Series [2] can be described thus: molar heat capacity at constant pressure. Particulars: 101.33 kPa, Liquid, Large sample (1 g) DSC.

Each structure is given as a SMILES string. ± gives the expanded uncertainty stated by the source.

What is called viscosity is the internal friction of a fluid under shear. On to `CCCCCCn1cc[n+](C)c1C.O=S(=O)([N-]S(=O)(=O)C(F)(F)F)C(F)(F)F`, for which the viscosity in series [1] (283 K) is 317 ± 27 mPa·s; in series [1] (293 K) it was 171 ± 13 mPa·s; in series [1] (298 K), 131 ± 9 mPa·s; in series [1] (303 K) it was 101 ± 6 mPa·s; in series [1] (313 K) it was 63 ± 3 mPa·s; in series [1] (323 K), 42 ± 2 mPa·s. Also, the viscosity in series [1] (333 K) worked out at 30 ± 2 mPa·s; in series [1] (343 K) it was 22 ± 1 mPa·s. Also, the Triple point temperature in series [1] turned out to be 268 ± 3 K. Moreover, in series [1], the Glass transition temperature is -74 ± 4 °C. The “molar heat capacity at constant pressure” value in series [2] (298 K) is listed as 686 ± 69 J/K/mol; in series [2] (323 K), 705 ± 71 J/K/mol.
With `CCCC[n+]1cccc(C)c1.F[B-](F)(F)F` [1-butyl-3-methylpyridinium tetrafluoroborate], the viscosity amounted to 517 ± 53 mPa·s in series [1] (283 K); 246 ± 22 mPa·s in series [1] (293 K); 177 ± 13 mPa·s in series [1] (298 K); 132 ± 8 mPa·s in series [1] (303 K); 78 ± 4 mPa·s in series [1] (313 K); 48 ± 3 mPa·s in series [1] (323 K). Moreover, the viscosity in series [1] (333 K) came to 33 ± 2 mPa·s; in series [1] (343 K), 23 ± 1 mPa·s. In addition, the Glass transition temperature in series [1] is -76 ± 4 °C. For the same molecule, the “molar heat capacity at constant pressure” value is 405 ± 41 J/K/mol in series [2] (298 K) and 421 ± 43 J/K/mol in series [2] (323 K).
For `CCCCCCCCn1cc[n+](C)c1.O=S(=O)([N-]S(=O)(=O)C(F)(F)F)C(F)(F)F`, in series [1], the Glass transition temperature was -84 ± 4 °C. Also, the “molar heat capacity at constant pressure” value in series [2] (298 K) is 654 ± 66 J/K/mol; in series [2] (323 K), 677 ± 68 J/K/mol.
With `CCCCCC[n+]1ccc(N(C)C)c(C)c1.[Br-]` [4-(dimethylamino)-1-hexyl-3-methylpyridinium bromide], in series [1], the Triple point temperature is 392 ± 3 K and the Glass transition temperature is -2 ± 4 °C.
In the case of `CCn1cc[n+](C)c1.O=S(=O)([N-]S(=O)(=O)C(F)(F)F)C(F)(F)F`, the viscosity was determined as 52 ± 3 mPa·s in series [1] (283 K); 36 ± 2 mPa·s in series [1] (293 K); 32 ± 2 mPa·s in series [1] (298 K); 26 ± 1 mPa·s in series [1] (303 K); 19 ± 1 mPa·s in series [1] (313 K); 15 ± 1 mPa·s in series [1] (323 K). The results for the viscosity in series [1] (333 K) and in series [1] (343 K) were 12 ± 1 mPa·s and 9 ± 1 mPa·s, respectively.
In the case of `CCOS(=O)(=O)[O-].CC[n+]1ccccc1` [1-ethylpyridinium ethyl sulfate], the viscosity in series [1] (283 K) came out at 356 ± 32 mPa·s; in series [1] (293 K) it was 183 ± 14 mPa·s; in series [1] (298 K), 137 ± 9 mPa·s; in series [1] (303 K), 105 ± 6 mPa·s; in series [1] (313 K), 66 ± 4 mPa·s; in series [1] (323 K), 43 ± 2 mPa·s. The values for the viscosity in series [1] (333 K) and in series [1] (343 K) were 31 ± 2 mPa·s and 23 ± 1 mPa·s, respectively.
For the molecule `CCCC[n+]1cccc(C)c1.[Br-]` [1-butyl-3-methylpyridinium bromide], the Glass transition temperature in series [1] was -36 ± 4 °C.
For the molecule `CCCCn1cc[n+](C)c1.COCCOCCOS(=O)(=O)[O-]` [1-butyl-3-methylimidazolium 2-(2-methoxyethoxy)ethyl sulfate], the viscosity turned out to be 4070 ± 730 mPa·s in series [1] (283 K); 1676 ± 260 mPa·s in series [1] (293 K); 1033 ± 140 mPa·s in series [1] (298 K); 731 ± 82 mPa·s in series [1] (303 K); 392 ± 36 mPa·s in series [1] (313 K); 228 ± 17 mPa·s in series [1] (323 K). The viscosity in series [1] (333 K) is on record as 146 ± 9 mPa·s; in series [1] (343 K), 98 ± 5 mPa·s. The Glass transition temperature in series [1] was -62 ± 4 °C. Moreover, the “molar heat capacity at constant pressure” value in series [2] (298 K) is listed as 643 ± 65 J/K/mol; in series [2] (323 K) it was 652 ± 66 J/K/mol.
On to `CCCC[n+]1cc(C)cc(C)c1.[Br-]` [1-butyl-3,5-dimethylpyridinium bromide], for which, in series [1], the Triple point temperature was 368 ± 3 K and the Glass transition temperature is -24 ± 4 °C.
Turning to `CC(=O)[O-].CCCCn1cc[n+](C)c1` [1-butyl-3-methylimidazolium acetate], the viscosity in series [1] (283 K) stood at 1630 ± 240 mPa·s; in series [1] (293 K), 646 ± 80 mPa·s; in series [1] (298 K), 440 ± 44 mPa·s; in series [1] (303 K), 309 ± 27 mPa·s; in series [1] (313 K), 165 ± 12 mPa·s; in series [1] (323 K), 97 ± 6 mPa·s. In addition, the values for the viscosity in series [1] (333 K) and in series [1] (343 K) were 62 ± 3 mPa·s and 42 ± 2 mPa·s, respectively.
For the molecule `CCCCCCCCCCCCCC[N+](C)(CCOCCOCCOCCOCCOCCO)CCOCCOCCOCCOCCOCCO.COS(=O)(=O)[O-]`, the viscosity in series [1] (283 K) worked out at 10240 ± 4400 mPa·s; in series [1] (298 K) it was 2790 ± 910 mPa·s; in series [1] (303 K) it was 1910 ± 560 mPa·s; in series [1] (313 K), 964 ± 230 mPa·s; in series [1] (323 K), 511 ± 98 mPa·s; in series [1] (333 K) it was 300 ± 44 mPa·s. Further, the viscosity in series [1] (343 K) was 187 ± 21 mPa·s. The “molar heat capacity at constant pressure” value in series [2] (298 K) is recorded as 1066 ± 110 J/K/mol; in series [2] (323 K), 1098 ± 110 J/K/mol.
`CCCCCC[n+]1cc(C)cc(C)c1.O=S(=O)([N-]S(=O)(=O)C(F)(F)F)C(F)(F)F`: the viscosity in series [1] (283 K) was determined as 251 ± 20 mPa·s; in series [1] (293 K), 136 ± 10 mPa·s; in series [1] (298 K) it was 104 ± 6 mPa·s; in series [1] (303 K), 81 ± 4 mPa·s; in series [1] (313 K), 52 ± 3 mPa·s; in series [1] (323 K), 35 ± 2 mPa·s. In addition, the values for the viscosity in series [1] (333 K) and in series [1] (343 K) were 24 ± 1 mPa·s and 18 ± 1 mPa·s, respectively. Also, the Triple point temperature in series [1] was 283 ± 3 K. Also, in series [1], the Glass transition temperature was -76 ± 4 °C. Besides, the “molar heat capacity at constant pressure” value was 620 ± 63 J/K/mol in series [2] (298 K) and 665 ± 67 J/K/mol in series [2] (323 K).
Consider `CCCCn1cc[n+](C)c1.O=C([O-])C(F)(F)F` [1-butyl-3-methylimidazolium trifluoroacetate], for which the viscosity in series [1] (283 K) is listed as 155 ± 10 mPa·s; in series [1] (293 K), 89 ± 5 mPa·s; in series [1] (298 K), 70 ± 4 mPa·s; in series [1] (303 K), 53 ± 3 mPa·s; in series [1] (313 K) it was 37 ± 2 mPa·s; in series [1] (323 K), 26 ± 1 mPa·s. Also, the viscosity in series [1] (333 K) is 19 ± 1 mPa·s; in series [1] (343 K), 15 ± 1 mPa·s.
Consider `CCCCCC[n+]1ccc(N2CCC(C)CC2)cc1.[Br-]` [1-hexyl-4-(4-methyl-1-piperidinyl)pyridinium bromide], for which, in series [1], the Glass transition temperature was 33 ± 4 °C.
Turning to `CCCC[n+]1ccc(N(C)C)cc1.[Br-]` [1-butyl-4-(dimethylamino)pyridinium bromide], the Triple point temperature in series [1] worked out at 495 ± 3 K.
As for `CCCCCCCCn1cc[n+](C)c1.[Br-]` [1-methyl-3-octylimidazolium bromide], the “molar heat capacity at constant pressure” value worked out at 392 ± 40 J/K/mol in series [2] (298 K) and 408 ± 41 J/K/mol in series [2] (323 K).
Regarding `CCCC[n+]1ccccc1.[Br-]` [1-butylpyridinium bromide], in series [1], the Triple point temperature is 378 ± 3 K.
Take `CCCCCC[n+]1ccc(N(C)C)cc1.[Br-]` [4-(dimethylamino)-1-hexylpyridinium bromide]: the Triple point temperature in series [1] came to 469 ± 3 K.
